Bounds are passed on as bounds.

For orientation: EC50 means the midpoint of the concentration-response curve.

The subject of the first test is genotype A, "Long" strain RSV. The test can be described thus: RSV-A in vitro cytoprotection assay in HEp-2 cells (ATPlite readout of cell viability). The settings on record: HEp-2 cells, genotype A “Long” strain RSV, cytoprotection; read-out: Human RSV-A (“Long” strain) EC50. Format: cell-based, Human respiratory syncytial virus. From the text:
RSV is a single stranded negative sense RNA virus that causes respiratory tract infections which can be dangerous to infants, the elderly, and immunosuppressed individuals. Currently there is no vaccine, and therapeutic options are both costly and of limited effectiveness. These approved treatments are Ribavirin, and Palivizumab/Synagis (a monoclonal antibody). RSV has two genotypes, A and B, which differ primarily in the structure of the virus' surface “G” attachment protein. Our current primary screen focuses on RSV-A and uses an in vitro cytoprotection assay where compounds are added in 2-fold dilutions to cells which are then subjected to fully replicative viral particles. Cell viability is measured several days later along with separate measurements of compound cytotoxicity. This report focuses on the results of our most recent screening of compounds.
HEp-2 cells, (originally derived from tumors grown in irradiated-cortisonised weanling rats that had been injected with epidermoid carcinoma tissue from a person's larynx, but later found to be indistinguishable from HeLa cells by PCR DNA analysis), were used for the culturing of genotype A, “Long” strain RSV. Flasks were inoculated with RSV and viral stocks were collected once cytopathic effect (CPE) was greater than 90%. Viral stocks in 25% sucrose media were snap frozen using liquid nitrogen to increase viral stability. Viral stock titers were quantified by tissue culture infectious dose 50% (TCID50) using 8,000 cells per well and 3-fold viral dilutions across a 96-well plate, cultured for 4 days.
Following extensive parameter testing, the final assay is run as follows: HEp-2 cells are seeded into the inner 60 wells of a 96-well plate at 8,000 cells per well in a volume of 50 μL using Growth Media (DMEM without phenol red, 1% L-Glut, 1% Penn/Strep, 1% nonessential amino acids, 10% FBS). 2-Fold serial dilutions of control and test compounds are added to the wells in duplicate in a total volume of 25 μL. Viral stock is then added to the wells in a volume of 25 μL, bringing the total volume of each well to 100 μL. Each 96-well plate has a control column of 6 wells with cells and virus but no compound (negative control, max CPE), a column with cells but no compound or virus (positive control, minimum CPE), and a column with no cells or virus or compound (background plate/reagent control). The control wells with cells but no virus are given an additional 25 uL of growth media containing an equal quantity of sucrose as those wells receiving the viral stock in order to keep consistent in media and volume conditions. The outer wells of the plate are filled with 125 μL of growth media to act as a thermal and evaporative moat around the test wells. Following a 4-day incubation period, the plates are read using ATPlite (50 uL added per well), which quantifies the amount of ATP (a measure of cell health) present in each well. Assay plates are read using the Envision luminometer. In parallel, cytotoxicity is examined on an additional 96-well plate treated in an identical manner, but substituting the 25 μL of viral stock for 25 μL of growth media. […] EC50 ranges are as follows: A <0.4 μM; B 0.4-0.8 μM; C >0.8 μM.
In the case of `O=C(NC1CC1)c1cc2c(s1)-c1ccccc1N(C(=O)c1cccc(-c3cnn(C4CCOCC4)c3)n1)CC2` [Example 150], the EC50 was greater than 800 nM.

Staying with this test, now noted: human respiratory syncytial virus, HEp-2, HEp-2 cells, genotype A “Long” strain RSV, cytoprotection; read-out: Human RSV-A (“Long” strain) EC50.
Regarding `COc1ccc(-c2cccc(C(=O)N3CCc4sc(C(=O)NC5CC5)nc4-c4ccccc43)n2)cn1` [Example 109], the concentration giving a half-maximal response (EC50) was greater than 800 nM. With `COc1ccc(-c2cccc(C(=O)N3CCc4cnc(NC(=O)C5CC5)nc4-c4ccccc43)n2)cn1` [Example 110], the EC50 is greater than 800 nM.

As to `O=C(Nc1ncc2c(n1)-c1ccccc1N(C(=O)c1cccc(N3CCCOCC3)n1)CC2)C1CC1` [Example 111], the half-maximal effective concentration (EC50) is greater than 800 nM. As to `O=C(NC1CC1)c1cc2c(s1)-c1ccccc1N(C(=O)c1cccc(-n3ccc4ccccc43)n1)CC2` [Example 112], the concentration for a half-maximal effect (EC50) is greater than 800 nM. With `COc1ccc2c(ccn2-c2cccc(C(=O)N3CCc4cc(C(=O)NC5CC5)sc4-c4ccccc43)n2)c1` [Example 113], the EC50 is greater than 800 nM. For `COc1cccc2c1ccn2-c1cccc(C(=O)N2CCc3cc(C(=O)NC4CC4)sc3-c3ccccc32)n1` [Example 114], the EC50 was greater than 800 nM. On the same count and under the same terms, to `COCCN(c1ccccc1)c1cccc(C(=O)N2CCc3cc(C(=O)Nc4c(C)cccc4F)sc3-c3ccccc32)n1` [Example 115] belongs less than 400 nM; to `Cc1cccc(F)c1NC(=O)c1cc2c(s1)-c1ccccc1N(C(=O)c1cccc(N(C)CC3Cc4ccccc4O3)n1)CC2` (stereo not shown) [Example 117], less than 400 nM; to `COCCN(CC(C)C)c1cccc(C(=O)N2CCc3cc(C(=O)Nc4c(C)cccc4F)sc3-c3ccccc32)n1` [Example 118], less than 400 nM. With `COc1cccc2c1ccn2-c1cccc(C(=O)N2CCc3cc(C(=O)Nc4c(C)cccc4F)sc3-c3ccccc32)n1` [Example 119], the EC50 lay within 400 to 800 nM. Take `COc1ccc2c(ccn2-c2cccc(C(=O)N3CCc4cc(C(=O)Nc5c(C)cccc5F)sc4-c4ccccc43)n2)c1` [Example 120]: the concentration for a half-maximal effect (EC50) was less than 400 nM.

For `O=C(NC1CC1)c1cc2c(s1)-c1ccccc1N(C(=O)c1cccc(-n3cnc4ncccc43)n1)CC2` [Example 121], the EC50 is greater than 800 nM. Still for that read-out and setting: to `Cc1cccc(F)c1NC(=O)c1cc2c(s1)-c1ccccc1N(C(=O)c1cccc(-n3cnc4ncccc43)n1)CC2` [Example 122] belongs greater than 800 nM; to `Cc1cccc(F)c1NC(=O)c1cc2c(s1)-c1ccccc1N(C(=O)c1cccc(-n3nnc4ncccc43)n1)CC2` [Example 123], greater than 800 nM; to `O=C(NC1CC1)c1cc2c(s1)-c1ccccc1N(C(=O)c1cccc(-c3nncn3C3CCOCC3)n1)CC2` [Example 124], greater than 800 nM.

With `COC(C)(C)Cn1cnnc1-c1cccc(C(=O)N2CCc3cc(C(=O)NC4CC4)sc3-c3ccccc32)n1` [Example 125], the half-maximal effective concentration (EC50) is greater than 800 nM. On the same count and under the same terms, to `O=C(NC1CC1)c1cc2c(s1)-c1ccccc1N(C(=O)c1cccc(-c3nncn3C3CC3)n1)CC2` [Example 126] belongs greater than 800 nM. Consider `O=C(NC1CC1)c1cc2c(s1)-c1ccccc1N(C(=O)c1cccc(-c3nncn3CC3CCOCC3)n1)CC2` [Example 127], for which the EC50 was greater than 800 nM. Regarding `O=C(NC1CC1)c1cc2c(s1)-c1ccccc1N(C(=O)c1cccc(-c3nncn3C3COC3)n1)CC2` [Example 128], the half-maximal effective concentration (EC50) is greater than 800 nM. The same measure, in the same setting: to `Cc1cccc(F)c1NC(=O)c1cc2c(s1)-c1ccccc1N(C(=O)c1ccc(NC(=O)NCCN3CCOCC3)cc1)CC2` [Example 129] belongs greater than 800 nM. Same read-out and setting: in the case of `Cc1cccc(F)c1NC(=O)c1cc2c(s1)-c1ccccc1N(C(=O)c1ccc(NC(=O)N3CC4(CCOCC4)C3)cc1)CC2` [Example 130] it was greater than 800 nM; in that of `Cc1cccc(F)c1NC(=O)c1cc2c(s1)-c1ccccc1N(C(=O)c1ccc(NC(=O)N3CCCOCC3)cc1)CC2` [Example 131], greater than 800 nM.

On to `Cc1cccc(F)c1NC(=O)c1cc2c(s1)-c1ccccc1N(C(=O)c1ccc(NS(=O)(=O)c3cccnc3N3CC4(CCOCC4)C3)cc1)CC2` [Example 132], for which the half-maximal effective concentration (EC50) was greater than 800 nM. For the compound `Cc1cnc(N2CC3(CCOCC3)C2)c(NS(=O)(=O)c2ccc(C(=O)N3CCc4cc(C(=O)Nc5c(C)cccc5F)sc4-c4ccccc43)cc2)c1` [Example 133], the EC50 was greater than 800 nM.

On to `Cc1cccc(F)c1NC(=O)c1cc2c(s1)-c1ccccc1N(C(=O)c1ccc(Nc3cccnc3N3CC4(CCOCC4)C3)cc1)CC2` [Example 134], for which the EC50 is greater than 800 nM. Consider `Cc1cccc(F)c1NC(=O)c1cc2c(o1)-c1ccccc1N(C(=O)c1ccc(NC(=O)c3cccnc3N3CC4(CCOCC4)C3)cc1)CC2` [Example 135], for which the concentration giving a half-maximal response (EC50) was less than 400 nM. `Cc1cnc(N2CCOCC2)c(NC(=O)c2ccc(C(=O)N3CCc4cc(C(=O)Nc5c(C)cccc5F)sc4-c4ccccc43)cc2)c1` [Example 137]: the 50% effective concentration (EC50) is greater than 800 nM. In the case of `Cc1cnc(N2CC3(CCCOC3)C2)c(NC(=O)c2ccc(C(=O)N3CCc4cc(C(=O)Nc5c(C)cccc5F)sc4-c4ccccc43)cc2)c1` [Example 138], the EC50 was greater than 800 nM. Regarding `Cc1cnc(N2CCC3(COC3)C2)c(NC(=O)c2ccc(C(=O)N3CCc4cc(C(=O)Nc5c(C)cccc5F)sc4-c4ccccc43)cc2)c1` [Example 139], the concentration for a half-maximal effect (EC50) is greater than 800 nM.

On to `Cc1cnc(N2CC3(CCOC3)C2)c(NC(=O)c2ccc(C(=O)N3CCc4cc(C(=O)Nc5c(C)cccc5F)sc4-c4ccccc43)cc2)c1` [Example 140], for which the half-maximal effective concentration (EC50) is greater than 800 nM. For `Cc1cnc(N2CC3(COC3)C2)c(NC(=O)c2ccc(C(=O)N3CCc4cc(C(=O)Nc5c(C)cccc5F)sc4-c4ccccc43)cc2)c1` [Example 141], the EC50 was greater than 800 nM. For the compound `Cc1cnc(N2CC3(CCOCC3)C2)c(NC(=O)c2ccc(C(=O)N3CCc4cc(C(=O)Nc5c(C)cccc5F)sc4-c4ccccc43)cc2)c1` [Example 142], the concentration giving a half-maximal response (EC50) was less than 400 nM. Turning to `Cc1cccc(F)c1NC(=O)c1cc2c(s1)-c1ccccc1N(C(=O)c1cccc(-n3cc(C#N)cn3)n1)CC2` [Example 143], the concentration giving a half-maximal response (EC50) was greater than 800 nM. As to `Cc1cccc(F)c1NC(=O)c1cc2c(s1)-c1ccccc1N(C(=O)c1cccc(-n3cc(S(C)(=O)=O)cn3)n1)CC2` [Example 144], the EC50 is greater than 800 nM. For `Cc1cccc(F)c1NC(=O)c1cc2c(s1)-c1ccccc1N(C(=O)c1cccc(-n3cnnc3C3CC3)n1)CC2` [Example 145], the EC50 was greater than 800 nM. In the case of `Cc1cccc(F)c1NC(=O)c1cc2c(s1)-c1ccccc1N(C(=O)c1cccc(-n3ccnc3C3CC3)n1)CC2` [Example 146], the EC50 was less than 400 nM. For the compound `Cc1cccc(F)c1NC(=O)c1cc2c(s1)-c1ccccc1N(C(=O)c1cccc(-n3ccnc3C3CCC3)n1)CC2` [Example 147], the concentration giving a half-maximal response (EC50) was less than 400 nM. In the case of `Cc1cccc(F)c1NC(=O)c1cc2c(s1)-c1ccccc1N(C(=O)c1cccc(-n3cncc3C3CC3)n1)CC2` [Example 148], the EC50 was greater than 800 nM.

Turning to `Cc1cccc(F)c1NC(=O)c1cc2c(s1)-c1ccccc1N(C(=O)c1cccc(-n3cnc(C4CC4)c3)n1)CC2` [Example 149], the EC50 was less than 400 nM. On to `Cn1cc(-c2cccc(C(=O)N3CCc4cc(C(=O)NC5CC5)sc4-c4ccccc43)n2)ccc1=O` [Example 151], for which the EC50 was greater than 800 nM. With `O=C(NC1CC1)c1cc2c(s1)-c1ccccc1N(C(=O)c1cccc(-c3ccnc4ccccc34)n1)CC2` [Example 152], the concentration giving a half-maximal response (EC50) is greater than 800 nM. `O=C(NC1CC1)c1cc2c(s1)-c1ccccc1N(C(=O)c1cccc(-c3cncc4ccccc34)n1)CC2` [Example 153]: the concentration giving a half-maximal response (EC50) was greater than 800 nM.

For the origin of these results see patent US10759816B2, “Heterocyclic compounds as RSV inhibitors” (Enanta Pharmaceuticals, Inc., priority 2016, dated 2020).
